Source: US11730720B2, “ALK5 inhibitors” (THERAVANCE BIOPHARMA R&D IP, LLC, priority 2018, dated 2023)

Key:
[1] = target: T1, recombinant human ALK5 (TGF-βR1) protein (Homo sapiens, UniProt P36897); assay: Biochemical ALK5 (TGF-βR1) assay to measure pKi (LANCE Ultra ULight kinase assay); settings: apparent pKi, converted from pIC50 using the Cheng-Prusoff equation
T1 construct: purchased Life Technologies PR9075A
T1 sequence (P36897 34-503): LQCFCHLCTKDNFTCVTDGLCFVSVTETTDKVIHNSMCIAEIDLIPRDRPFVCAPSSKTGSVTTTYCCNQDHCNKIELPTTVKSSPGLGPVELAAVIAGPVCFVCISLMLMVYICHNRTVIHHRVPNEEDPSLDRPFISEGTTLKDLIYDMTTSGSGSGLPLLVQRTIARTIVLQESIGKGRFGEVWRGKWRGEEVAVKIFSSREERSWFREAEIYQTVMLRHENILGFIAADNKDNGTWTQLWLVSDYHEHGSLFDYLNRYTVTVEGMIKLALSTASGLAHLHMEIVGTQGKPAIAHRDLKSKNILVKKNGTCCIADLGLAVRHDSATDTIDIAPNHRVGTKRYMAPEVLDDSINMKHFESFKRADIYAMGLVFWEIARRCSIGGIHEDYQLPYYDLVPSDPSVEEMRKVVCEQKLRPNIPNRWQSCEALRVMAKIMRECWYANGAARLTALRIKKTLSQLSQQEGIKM
Protocol: Example 254: Biochemical ALK5 (TGF-βR1) Assay to Measure pKi
The assays were performed in a 384-well plate (24 columns×16 wells/rows). An Echo® 550 Liquid Handler (Labcyte) was used to prepare various intermediate concentrations of compounds of the present disclosure in 100% DMSO. From the intermediate concentrations, a range of concentrations (from 10 μM to 25 pM corresponding to volumes up to 105 nL) were prepared and ejected into a final assay plate to be used to create individual dose response curves for each of the subject compounds. To a separate column within the assay plate, 105 nL of DMSO in each well was used to establish a maximum assay signal. Additionally, 105 nL of 100 μM SD-208, a selective TGF-βR1 inhibitor (Catalog #S7624, Selleck Chemicals), was used in another column of wells to establish a minimal assay signal.
With a multidrop dispenser, 8 μL of enzyme mixture (1.25× final) was added to each well. The enzyme mixture consisted of 250 pM ALK5 enzyme and 62.5 nM peptide substrate (LANCE® (lanthanide chelate excite) Ultra ULight™-DNA Topoisomerase 2-alpha (Thr1342)) prepared in assay buffer (50 mM HEPES, 10 mM MgCl2, 1 mM EGTA, 0.01% Tween-20, pH 7.5 at room temperature) with 2 mM DTT added prior to use. The plate was then sealed with an adhesive seal and allowed to equilibrate for 60 minutes at room temperature.
Next, 2 μL of 125 μM ATP (5× final, 125 μM ATP prepared in assay buffer with 2 mM DTT) was added to the incubated mixtures, covered with a MicroClime® Environmental Lid (Product No. LLS-0310, Labcyte) and immediately transferred to 37° C. The reactions were allowed to proceed at 37° C. for 60 minutes before terminating with the addition of 10 μL of detection antibody (LANCE® (lanthanide chelate excite) Ultra Europium-anti-phospo-DNA Topoisomerase 2-alpha (Thr1342)) in detection mixture (12 mM EDTA, 4 nM detection antibody prepared in detection buffer (50 mM Tris-HCl, 150 mM NaCl, 0.5% BSA (Fraction V), pH 7.0)) at room temperature. The plate was then read on a Perkin Elmer EnVision Plate Reader using europium specific reader settings with excitation and emission wavelengths set to 320 or 340 nm and 665 nm, respectively.
For dose-response analyses, percent inhibition versus compound concentrations were plotted, and pIC50 values were determined from a 4-parameter robust fit model with GraphPad Prism V5 Software (GraphPad Software, Inc., La Jolla, Calif.). This model obtains pIC50 values by fitting the sigmodial dose-response (variable slope) equation to the data. Results were expressed as pIC50 (negative logarithm of IC50) and subsequently converted to pKi (negative logarithm of dissociate constant, K) using the Cheng-Prusoff equation.
The higher the value of pKi (lower value of Ki), the greater the inhibition of ALK5 activity.

[2] = tested on: TGF-β-stimulated SMAD3 phosphorylation in BEAS-2B cells; assay: Cellular ALK5 potency assay, inhibition of TGF-β stimulated pSMAD3 formation in BEAS-2B cells; assay type: cell-based; settings: Homo sapiens, inhibition of TGF-β (10 ng/mL) stimulated pSMAD3 formation, 1 hour compound incubation, read-out: BEAS2B pIC50 (converted)
Protocol: Example 255: Cellular ALK5 Potency Assay to Measure pIC50, Inhibition of TGF-β Stimulated pSMAD3 Formation in BEAS-2B Cells
The potency of compounds of the present disclosure for inhibition of TGF-β-stimulated SMAD3 phosphorylation was measured in BEAS-2B cells, a human lung epithelial cell line. TGF-β signals through activin receptor-like kinase 5 (ALK5) immediately prior to SMAD3 phosphorylation.
BEAS-2B cells were grown using 50% DMEM (Life Technologies) and 50% F-12 (Life Technologies) media, supplemented with 10% Fetal Bovine Serum (ATCC), 25 mM HEPES (Life Technologies), and 1×Pen-Strep (Life Technologies). Cells were cultured in a humidified incubator set at 37° C., 5% CO2, and trypsonized using 0.25% Trypsin with 0.5% polyvinylpyrrolidone (PVP).
For the assay, BEAS-2B cells were seeded at 7,500 cells/well (25 μL/well) in a 384-well plate and cultured overnight. Before dosing, growth media was aspirated and the wells were rinsed with HBSS Buffer (HBSS with Calcium and Magnesium, Life Technologies) supplemented with 25 mM HEPES (Life Technologies) and 1% Bovine Serum Albumin (Roche). Compounds were serially diluted in DMSO, then further diluted with supplemented HBSS Buffer (50 μL/well) to create a compound plate 3× of the final assay concentration, at 0.3% DMSO. The diluted compounds were then added to the cells (8 μL/well) and incubated at 37° C., 5% CO2 for 1 hour. After the compound incubation, TGF-β (R&D Systems) reconstituted in supplemented HBSS Buffer was added to the cells ([…], final concentration 10 ng/mL) and incubated for a further 30 minutes, after which the cells were immediately lysed with AlphaLISA lysis buffer (PerkinElmer). AlphaLISA Acceptor and Detector beads (PerkinElmer) were added 2 hours apart, then incubated overnight to be read the next day. The potency of the compound was determined through analysis of dose-dependent quantified changes in pSMAD3 signal from baseline (non-compound treated TGF-β stimulated cells). Data are expressed as pIC50 (negative decadic logarithm IC50) values.

SMILES	Ki [1]	IC50 [2]
CC1(C)CCCN1CCNc1cnc2ccc(-c3c[nH]nc3-c3cc(Cl)ccc3F)nc2c1 [Compound 1-13, 6-[3-(5-chloro-2-fluoro-phenyl)-1H-pyrazol-4-yl]-N-[2-(2,2-dimethylpyrrolidin-1-yl)ethyl]-1,5-naphthyridin-3-amine]	0.0398 to 0.316 nM	≤ 20 nM
Fc1ccc(Cl)cc1-c1n[nH]cc1-c1ccc2ncc(NCCN3CCCC3)cc2n1 [Compound 1-14, 6-[3-(5-chloro-2-fluoro-phenyl)-1H-pyrazol-4-yl]-N-(2-pyrrolidin-1-ylethyl)-1,5-naphthyridin-3-amine]	0.0398 to 0.316 nM	≤ 20 nM
Fc1ccc(Cl)cc1-c1n[nH]cc1-c1ccc2ncc(Nc3ccc(N4CCNCC4)cn3)cc2n1 [Compound 1-15, 6-(3-(5-chloro-2-fluorophenyl)-1H-pyrazol-4-yl)-N-(5-(piperazin-1-yl)pyridin-2-yl)-1,5-naphthyridin-3-amine]	0.0398 to 0.316 nM	25.1 to 158 nM
Fc1ccc(Cl)cc1-c1n[nH]cc1-c1ccc2ncc(NCC3CCNC3)cc2n1 (centres unmarked) [Compound 1-16, 6-[3-(5-chloro-2-fluoro-phenyl)-1H-pyrazol-4-yl]-N-(pyrrolidin-3-ylmethyl)-1,5-naphthyridin-3-amine]	0.0398 to 0.316 nM	25.1 to 158 nM
Fc1ccc(Cl)cc1-c1n[nH]cc1-c1ccc2ncc(NCC3CCN3)cc2n1 (centres unmarked) [Compound 1-17, N-(azetidin-2-ylmethyl)-6-[3-(5-chloro-2-fluoro-phenyl)-1H-pyrazol-4-yl]-1,5-naphthyridin-3-amine]	0.0398 to 0.316 nM	25.1 to 158 nM
Fc1ccc(Cl)cc1-c1n[nH]cc1-c1ccc2ncc(NC3CNC3)cc2n1 [Compound 1-18, N-(azetidin-3-yl)-6-[3-(5-chloro-2-fluoro-phenyl)-1H-pyrazol-4-yl]-1,5-naphthyridin-3-amine]	0.0398 to 0.316 nM	25.1 to 158 nM
Fc1ccc(Cl)cc1-c1n[nH]cc1-c1ccc2ncc(N[C@@H]3CCNC3)cc2n1 [Compound 1-19, 6-[3-(5-chloro-2-fluoro-phenyl)-1H-pyrazol-4-yl]-N-[(3R)-pyrrolidin-3-yl]-1,5-naphthyridin-3-amine]	0.398 to 3.16 nM	25.1 to 158 nM
Fc1ccc(Cl)cc1-c1n[nH]cc1-c1ccc2ncc(NC[C@@H]3CCCN3)cc2n1 [Compound 1-20, 6-[3-(5-chloro-2-fluoro-phenyl)-1H-pyrazol-4-yl]-N-[[(2S)-pyrrolidin-2-yl]methyl]-1,5-naphthyridin-3-amine]	0.0398 to 0.316 nM	≤ 20 nM
Fc1ccc(Cl)cc1-c1n[nH]cc1-c1ccc2ncc(NCCN3CCNCC3)cc2n1 [Compound 1-21, 6-[3-(5-chloro-2-fluoro-phenyl)-1H-pyrazol-4-yl]-N-(2-piperazin-1-ylethyl)-1,5-naphthyridin-3-amine]	0.0398 to 0.316 nM	25.1 to 158 nM
COC(=O)C1CN(CCNc2cnc3ccc(-c4c[nH]nc4-c4cc(Cl)ccc4F)nc3c2)CCN1 (centres unmarked) [Compound 1-22, methyl 4-[2-[[6-[3-(5-chloro-2-fluoro-phenyl)-1H-pyrazol-4-yl]-1,5-naphthyridin-3-yl]amino]ethyl]piperazine-2-carboxylate]	0.0398 to 0.316 nM	25.1 to 158 nM
Fc1ccc(Cl)cc1-c1n[nH]cc1-c1ccc2ncc(NCC3CCCCN3)cc2n1 (centres unmarked) [Compound 1-23, 6-[3-(5-chloro-2-fluoro-phenyl)-1H-pyrazol-4-yl]-N-(2-piperidylmethyl)-1,5-naphthyridin-3-amine]	0.0398 to 0.316 nM	25.1 to 158 nM
Fc1ccc(Cl)cc1-c1n[nH]cc1-c1ccc2ncc(NC3CCNCC3)cc2n1 [Compound 1-24, 6-[3-(5-chloro-2-fluoro-phenyl)-1H-pyrazol-4-yl]-N-(4-piperidyl)-1,5-naphthyridin-3-amine]	0.0398 to 0.316 nM	25.1 to 158 nM
Fc1ccc(Cl)cc1-c1n[nH]cc1-c1ccc2ncc(NC3CCCNC3)cc2n1 (centres unmarked) [Compound 1-25, 6-[3-(5-chloro-2-fluoro-phenyl)-1H-pyrazol-4-yl]-N-(3-piperidyl)-1,5-naphthyridin-3-amine]	0.398 to 3.16 nM	25.1 to 158 nM
